The record followed here is patent US20230027620A1, “PENTAPEPTIDE AND METHODS OF USE THEREOF” (THE BOARD OF TRUSTEES OF THE UNIVERSITY OF ILLINOIS, priority 2019, published 2023).

For experiment [1], the system named is HCLE cells. Put plainly: In vitro scratch assay, HCLE cells. It is filed as cell-based, Human. How it is done:
Cell Culture. Human corneal limbal epithelial (HCLE) cells were cultured in keratinocyte-serum free medium (K-SFM; ThermoScientific, Waltham, Mass.) supplemented with 0.2 ng/mL rhEGF (ThermoScientific, Waltham, Mass.), bovine pituitary extract (ThermoScientific, Waltham, Mass.) and 1% Amphotericin B (ThermoScientific, Waltham, Mass.). Standard cell culture conditions (37° C., 5% CO2, >95% humidity) were used during routine passages. The culture medium was replaced every 48 hours after seeding.
In Vitro Scratch Assay. HCE, HCLE, HELA and MCF-7 cells were cultured in a 24-well plate at 2.5×10^5 (cells/well) seeding density, and were grown to confluence on a 24-well plate. Subsequently, a straight-line scratch mark was made with a sterile P200 pipette tip. […] The wound area at each time-point was measured using Image J software (Image J 1.47v, NIH, Thornwood, Bethesda, Md.). Relative wound closure was calculated by dividing the closure of the treated wound by that of the untreated wound. […]
(§1) A cell sprouting assay using HCE cells embedded as a spot in growth factor reduced solubilized basement membrane sold under the tradename MATRIGEL® (Corning Life Sciences, Tewksbury, Mass.) was used to determine if HST5 could promote epithelial cell migration. […] Time-lapse microscopy was performed and wound areas were analyzed at different time points. […]

The test system of experiment [2] is corneal epithelial wound in C57BLl6J mice. Put plainly: Murine corneal epithelial injury (wound healing) model. The format is in vivo. How it is done:
Wounded areas were treated with Hst5, SHRGY (SEQ ID NO:2) or SP1 peptides (n=7 for each group), each tested at 80 μM concentration. Wound areas at multiple time points were measured using Image J software. […] Statistical significance was determined by a two-way ANOVA with Bonferroni post-hoc test. **P<0.01, ***P<0.001. % Wound area=(Wound area at time X/Wound area at time 0)×100.
Wound Healing Assay. Corneal wounding experiments in mice were conducted in compliance with the Association for Research in Vision and Ophthalmology (ARVO) Statement for the Use of Animals in Ophthalmic and Vision Research. The protocol was approved by the Animal Care & Use Committee of the University of Illinois at Chicago. Twelve-to-nineteen week old C57BLl6J (Jackson Laboratory, Bar Harbor, Me.) mice were anesthetized with intraperitoneal injection of ketamine (100 mg/kg) and xylazine (5 mg/kg). After applying two drops of topical 0.5% proparacaine, a 2.0-mm area of the central epithelium was demarcated using 2-mm disposable biopsy punch and removed by an AlgerBrush II (The Alger Company, Lago Vista, Tex.). In the treatment (n=7) or the control (n=7) group, Histatin=5 (80 μM), SHRGY peptide (SEQ ID NO:2; 80 μM), or SP1 (80 μM) was applied to the cornea three times a day. At 0, 18 and 24 hours, the corneas were stained with fluorescein (FUL-GLO® Fluorescein Sodium ophthalmic strips, Akorn, Lake forest, Ill.) and photographed using a NIKON FS-2 photo-slit lamp with a NIKON D200 camera (Melville, N.Y.). Wound sizes were compared with the baseline for each mouse and the percentages of wound closure was measured using Image J software.
For immunofluorescence, excised whole mouse eye was snap frozen in optimal cutting temperature compound (OCT; (Fisher Healthcare, Galderma, Calif.). The frozen tissues were cut into 10 μm cryosections (ThermoScientific NX50 Cryomicrotome, Waltham, Mass.) and subsequently were mounted on Superfrost plus slides (Thermofisher, Waltham, Mass.). Slides were fixed for 20 minutes in methanol, washed several times with PBS, stained with DAPI for 2 minutes, and further washed with PBS and deionized water. The slides were then mounted in Fluoro gel with Tris buffer (Electron Microscopy Sciences, Hattfield, Pa.) and observed under a confocal microscope (Zeiss LSM 710 Confocal Microscope, Oberkochen, Germany) using a 10× objective.
Thus, Hst5 and SHRGY (SEQ ID NO:2)-containing peptides can enhance wound healing in a well-vetted model of murine corneal epithelial injury.

Experiment [3] deals with Human corneal epithelial (HCE) cells. Put plainly: In vitro scratch assay, HCE cells. The format is cell-based. The settings on record: compared with scrambled peptide control (SP1). How it is done:
Human corneal epithelial (HCE) cells were cultured in a Medium Essential Media (MEM; Gibco, Life Technologies, Carlsbad, Calif.). HeLa cells were maintained in Dulbecco's Modified Eagle's Medium (DMEM; Life Technologies, Grand Island, N.Y.). Both media were supplemented with 10% fetal bovine serum (Gibco, Life Technologies, Carlsbad, Calif.) and 1% penicillin-streptomycin (Gibco, Life Technologies, Carlsbad, Calif.). […]
In Vitro Scratch Assay. […] The wound area at each time-point was measured using Image J software (Image J 1.47v, NIH, Thornwood, Bethesda, Md.). Relative wound closure was calculated by dividing the closure of the treated wound by that of the untreated wound. […]
as §1
Wound closure rates of the three salt forms were also analyzed in accordance with the methods disclosed herein. In particular, human corneal epithelial cells were scratched using standardized scratch assays and rates of wound healing were measured after application of the acetic acid, hydrochloride and trifluoroacetate salt forms of SHRGY (SEQ ID NO:2).

As to DSHAKRHHGYKRKFHEKHHSHRGY [Hst5], in experiment [1] (20, 50, 80 and 100 μM, compared with untreated control), the “rates of in vitro scratch assay closure” value is given as “dose-dependent increase in rates of in vitro scratch assay closure”. Also, the “concentration of most significant increase in scratch closure rates” value in experiment [1] (tested at 20, 50, 80 and 100 μM) is 50 µM. Besides, the “% remaining corneal wound area compared to baseline” value in experiment [2] (80 μM, 18 hours and 24 hours, compared to SP1, n=7) is recorded as “statistically significant improvement”. In experiment [2] (compared to SP1-treated controls), the “corneal wound size, histologic analysis (DAPI cross sections)” value is listed as “reductions in corneal wound size”. Also, the “corneal wound closure rates” value in experiment [2] (topical, 80 μM, three times a day, vs scrambled peptide control SP1) is listed as “significant improvement in corneal wound closure rates”. Besides, the “concentration of statistically significant peak effect on scratch closure” value in experiment [3] turned out to be 80 µM.
